Source: patent US20130197088A1, “Compositions and Methods for Combinations of Oligoamines with 2-Difluoromethylornithine (DFMO)” (priority 2010, published 2013)
“Also recorded” adds a separate entry of the source.

Assays:
[1] = tested on: Egr1 and Oct4 genes in P19 embryonal carcinoma cells; details: cited from earlier work
ODC [2] = biological target: T1, ODC (Homo sapiens, UniProt P11926); assay: Inhibition of ODC activity by DFMO enantiomers; type: biochemical
T1 sequence (P11926 1-461): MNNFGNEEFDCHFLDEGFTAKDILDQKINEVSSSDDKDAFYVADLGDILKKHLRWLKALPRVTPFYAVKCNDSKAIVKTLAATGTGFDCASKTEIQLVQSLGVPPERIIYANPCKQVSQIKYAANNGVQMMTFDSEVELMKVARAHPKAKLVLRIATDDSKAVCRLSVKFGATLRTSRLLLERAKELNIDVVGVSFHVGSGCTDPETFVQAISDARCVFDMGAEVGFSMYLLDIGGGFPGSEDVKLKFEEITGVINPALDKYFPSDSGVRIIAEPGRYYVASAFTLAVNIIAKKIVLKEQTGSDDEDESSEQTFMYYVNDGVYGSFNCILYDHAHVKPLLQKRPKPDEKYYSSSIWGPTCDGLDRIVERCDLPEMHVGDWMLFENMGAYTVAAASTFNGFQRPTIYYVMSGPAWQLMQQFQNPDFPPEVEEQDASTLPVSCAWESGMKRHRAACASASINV
Protocol: The use of D-DFMO or enriched D-isomer mixtures can overcome many of the problems associated with the use of racemic (50/50) D,L-DFMO. D-DFMO or enriched D-DFMO isomer mixtures may be administered at a dosage higher than a racemic mixture, due to lower anticipated toxicity associated with the D enantiomer. In three separate studies using concentrations from 0.6 μM to 80 μM D-, L-, and D,L-DFMO, the effective concentration level of each which inhibits 50% of the ODC activity (Ki) can be determined. Both enantiomers, as well as the racemic mixture, were inhibitory.

ODC [3] = biological target: T1, ODC; details: concentrations from 0.6 μM to 80 μM; cited from earlier work
[4] = guinea pigs; cited from earlier work
HCT116 cells = assay: Intracellular polyamine pools by high pressure liquid chromatography after DFMO / PG-11144 treatment; type: cell-based, human
Protocol: DFMO (2- or α-difluoromethylornithine) can be obtained from Merrell Dow Pharmaceutical Inc. (Cincinnati, Ohio). Polyamine analogues are provided by Progen Pharmaceuticals Ltd. (Queensland, Australia). Stock solutions of each compound are diluted with medium to the desired concentrations for specific experiments. HCT116 colorectal carcinoma cells are maintained in McCoy's 5A medium supplemented with 9% FBS (Atlanta Biologicals, Lawrenceville, Ga.) and 1% penicillin/streptomycin (Mediatech, Manassas, Va.), and grown at 37° C. in 5% CO2 atmosphere. For experiments, HCT116 cells are first treated for 24 hours with 5 mM DFMO followed by another 24 hours treatment of replenished 5 mM DFMO and polyamine analogues in the indicated doses alone or simultaneously. Intracellular polyamine concentrations are determined by high pressure liquid chromatography.
A mixture of both D-enantiomer of DFMO and L-enantiomer of DFMO is used to generate data in Table 1.

[5] = tested on: six human tumors (three mammary carcinomas, a malignant melanoma, a bladder carcinoma, an endocervical carcinoma); details: after DFMO treatment; cited from earlier work
[6] = tested on: colon adenomas and carcinomas; details: animal models of colon carcinogenesis; cited from earlier work
SFRP2 in HCT116 cells = assay: Re-expression of aberrantly silenced SFRP2, qPCR; type: cell-based, human
Protocol: HCT116 cells are first treated for 24 hour with 5 mM DFMO followed by another 24 hour treatment of replenished 5 mM DFMO and oligoamines (PG-11144 and PG-11150 for panel A, PG-11157, PG 11158 and PG-11159 for panel B) alone or simultaneously. RNA is extracted using TRIzol reagents and first-strand cDNA is synthesized using M-MLV reverse transcriptase with an oligo(dT) primer (Invitrogen). qPCR for SFRP2 is performed in a MyiQ single color real-time PCR machine with GAPDH as an internal control. The SFRP2 primers used for qPCR are: sense, 5′ AAGCCTGCAAAAATAAAAATGATG (SEQ ID NO: 1); antisense, 5′ TGTAAATGGTCTTGCTCTTGGTCT (SEQ ID NO: 2) (annealing at 53° C.). The quantified results are the mean of triplicate treatments. The transcript level for control samples was set to a value of 1. S.D. is indicated by the error bars.
HCT116 cells are first treated for 24 hours with 5 mM DFMO followed by another 24 hours treatment of replenished 5 mM DFMO and PG-11144 in the indicated doses alone or simultaneously. RNA isolation and qPCR are performed. The quantified results are the means of triplicate treatments with S.D. as indicated. The transcript level for control samples is set to a value of 1.
RNA Isolation and qPCR: RNA is extracted using TRIzol reagents (Invitrogen, Carlsbad, Calif.). First-strand cDNA is synthesized using M-MLV reverse transcriptase with an oligo(dT) primer (Invitrogen). qPCR is performed in a MyiQ single color real-time PCR machine (Bio-Rad, Hercules, Calif.) with GAPDH as an internal control. The SFRP2 primers used are: sense, 5′ AAGCCTGCAAAAATAAAAATGATG (SEQ ID NO: 1); antisense, 5′ TGTAAATGGTCTTGCTCTTGGTCT (SEQ ID NO: 2) (annealing at 53° C.).

[7] = tested on: H3K4me2 at the promoter of SFRP2 in HCT116 cells; assay: ChIP analysis of H3K4me2 at the SFRP2 promoter; type: cell-based, human; details: 2.5 μM PG-11144 alone
Protocol: HCT116 cells are first treated for 24 hours with 5 mM DFMO followed by another 24 hours treatment of replenished 5 mM DFMO and 2.5 μM PG-11144 alone or simultaneously. Chromatin immunoprecipitation (CHIP) analysis is performed using EZ-chip kit (Millipore). In brief, cells are exposed to 1% formaldehyde to cross-link proteins, and two million cells are used for each CHIP assay. Antibodies against H3K4me2, and for control, H3 are used as indicated for immunoprecipitation of protein-DNA complexes. Quantitative ChIP is performed using qPCR on the MyiQ single color real-time PCR machine. The PCR primer sets used for amplification of precipitated SFRP2 promoter fragments are as follows: sense, 5′ CTCCCTCCCAGCCTGCCCATCTT (SEQ ID NO: 3); antisense, 5′ ACTGCCCACCATTTCCCCGTTTTG (SEQ ID NO: 4) (annealing at 61° C.). The relative enrichment of H3K4me2 for control samples is set to a value of 1.
Chromatin Immunoprecipitation (ChIP): CHIP analysis is performed using EZ-chip kit (Millipore) according to the manufacturer's instruction. In brief, cells are exposed to 1% formaldehyde to cross-link proteins, and two million cells are used for each CHIP assay. Antibody against H3 can be obtained from Abeam (Cambridge, Mass.) and antibody against H3K4me2 can be obtained from Millipore. Quantitative ChIP is performed using qPCR on the MyiQ single color real-time PCR machine. […]

[8] = tested on: HCT116 human colon tumors; assay: Established tumors in nude mouse model; type: in vivo; details: PG-11144 alone, nude mice

In the case of `N[C@@H]1C[C@H]1c1ccccc1` [tranylcypromine, (1R,2S)-2-phenylcyclopropan-1-amine], the “Effect on Egr1 and Oct4 gene transcription” value [1] is listed as “transcriptional de-repression”.
For `NCCC[C@@](N)(C(=O)O)C(F)F` [D-DFMO], the “Ki of D-DFMO relative to the L-form” value (ODC [2]) is given as “four fold lower”, the “Ki of D-DFMO relative to the mixture” value (ODC [2]) is given as 3 fold and the “Inhibition of ODC activity” value (ODC [3]) is given as “inhibitory”. For the same molecule, the “Effect on auditory function (compound action potential, cochlear microphonic, cochlear potentials)” value [4] was “no significant effects”.
For `NCCC[C@](N)(C(=O)O)C(F)F` [DFMO, 2-difluoromethylornithine], the “Polyamines: Putresine” value (HCT116 cells; DFMO 5 mM alone) was 0.0 nmol/mg Protein, the “Polyamines: Spermidine” value (HCT116 cells; DFMO 5 mM alone) was 0.0 nmol/mg Protein and the “Polyamines: Spermine” value (HCT116 cells; DFMO 5 mM alone) was 13.9 nmol/mg Protein. The “Growth of human tumors compared to control mice” value [5] was “significantly decreased” and the “Number and size of colon adenomas and carcinomas” value [6] was “reduces the number and size of colon adenomas and carcinomas”.
In the case of `CCNCCCCNCCCCNCCCCNCCCCNCC=CCNCCCCNCCCCNCCCCNCCCCNCC` (stereo in doubt) [PG-11144], the “Polyamines: Putresine” value (HCT116 cells; PG-11144 0.5 μM, 24 h) is reported as 4.7 nmol/mg Protein, the “Polyamines: Spermidine” value (HCT116 cells; PG-11144 0.5 μM, 24 h) is reported as 9.1 nmol/mg Protein and the “Polyamines: Spermine” value (HCT116 cells; PG-11144 0.5 μM, 24 h) is reported as 11.2 nmol/mg Protein. The “Polyamines: Putresine” value (HCT116 cells; PG-11144 1 μM, 24 h) was 4.7 nmol/mg Protein, the “Polyamines: Spermidine” value (HCT116 cells; PG-11144 1 μM, 24 h) was 8.4 nmol/mg Protein and the “Polyamines: Spermine” value (HCT116 cells; PG-11144 1 μM, 24 h) was 10.1 nmol/mg Protein. The “Polyamines: Putresine” value (HCT116 cells; PG-11144 2.5 μM, 24 h) was 3.8 nmol/mg Protein, the “Polyamines: Spermidine” value (HCT116 cells; PG-11144 2.5 μM, 24 h) was 5.6 nmol/mg Protein and the “Polyamines: Spermine” value (HCT116 cells; PG-11144 2.5 μM, 24 h) was 6.2 nmol/mg Protein. The “Polyamines: Putresine” value (HCT116 cells; PG-11144 5 μM, 24 h) was 0.0 nmol/mg Protein, the “Polyamines: Spermidine” value (HCT116 cells; PG-11144 5 μM, 24 h) was 4.2 nmol/mg Protein and the “Polyamines: Spermine” value (HCT116 cells; PG-11144 5 μM, 24 h) was 4.9 nmol/mg Protein. For the same molecule, the “Polyamines: Putresine” value (HCT116 cells; PG-11144 10 μM, 24 h) was 0.0 nmol/mg Protein, the “Polyamines: Spermidine” value (HCT116 cells; PG-11144 10 μM, 24 h) was 4.1 nmol/mg Protein and the “Polyamines: Spermine” value (HCT116 cells; PG-11144 10 μM, 24 h) was 6.4 nmol/mg Protein. For the same molecule, the SFRP2 expression (SFRP2 in HCT116 cells; 2.5 μM PG-11144 alone) was “does not lead to increased SFRP2 expression”, the “SFRP2 re-expression, synergy with DFMO (dose response)” value (SFRP2 in HCT116 cells; 5 μM PG-11144 with 5 mM DFMO) was “greatest synergy with DFMO” and the “SFRP2 expression (dose response)” value (SFRP2 in HCT116 cells; PG-11144 concentrations higher than 5 μM with 5 mM DFMO) was “less SFRP2 expression”. For the same molecule, the “Promoter H3K4me2 levels (SFRP2 promoter, ChIP)” value [7] was “does not lead to” and the “Antitumor activity on established tumors” value [8] was “effective in treating established tumors; also recorded: effective in shrinking established HCT116 human colon tumors”.
In the case of `NCCCC(N)(C(=O)O)C(F)F` (racemic) [D,L-DFMO], the “Inhibition of ODC activity” value (ODC [3]) is given as “inhibitory”.
For `NCCC[C@](N)(C(=O)O)C(F)F` [L-DFMO], the “Inhibition of ODC activity” value (ODC [3]) is given as “inhibitory” and the “Effect on auditory function (compound action potential, cochlear microphonic, cochlear potentials)” value [4] is given as “significant disruption of normal cochlear potentials”.
